# Measured values: patent publication US8143025B2, “Antibodies against vascular endothelial growth factor receptor-1” (ImClone LLC, priority 2004, dated 2012)
# “Also recorded” adds a separate entry of the source.
# Key:
# [1] = test system: MDA-MB-435 xenograft; assay: MDA-MB-435 breast tumor xenograft; format: in vivo, mouse
# Protocol: Athymic nude mice (Charles River Laboratories, Wilmington, Mass.) were injected subcutaneously in the left flank area with 2×10^6 of DU4475 cells or 5×10^6 of MDA-MB-231 and MDA-MB-435 cells mixed in Matrigel (Collaborative Research Biochemicals. Bedford, Mass.). In the DU4475 and MDA-MB-231 models, tumors were allowed to reach approximately 200 mm^3 in size and then mice were randomized into groups of 12-16 animals per group. Animals received i.p. administration of the anti-VEGFR-I antibody clones 6F9, 15F11, or 18F1 at a dose of 0.5 mg (MDA-MB-231) or 1 mg (DU4475) three times each week. In the MDA-MB-435 model, the tumor cells were implanted subcutaneously into mammary fat pad area in the mouse. After tumors grew to reach approximately 200 mm^3 in size, mice were randomized into groups of 15 animals per group and intraperitoneally administered with 0.5 mg per dose of 18F1 antibody three times each week. Mice in control groups received an equal volume of saline solution. Treatment of animals was continued for the duration of the experiment. Tumors were measured twice each week with calipers. Tumor volumes were calculated using the formula [π/6 (w1×w2×w2)], where “w1” represents the largest tumor diameter and “w2” represents the smallest tumor diameter. […] Tumor growth was evaluated approximately twice weekly, with tumor volume calculated as π/6* (Length*Width^2), where Length=longest diameter and Width=diameter perpendicular to Length. Tumor dimensions were measured with calipers. T/C % was calculated as 100*(Final Treatment Tumor Volume/Initial Treatment Tumor Volume)/(Final Control Tumor Volume/Initial Control Tumor Volume). […] The effect of treatment on tumor growth was analyzed using repeated measures analysis of variance (RM ANOVA), p<0.05 was considered significant. […] AU treatments were administered i.p. The effect of treatments on tumor growth were analyzed using repeated measures analysis of variance (RM ANOVA), p<0.05 was considered significant.
# [2] = test system: ERK1/2 downstream signaling; assay: ERK1/2 activation Western blot, PAE-VEGFR-I cells; format: cell-based; details: PAE-VEGFR-I transfectant cells, FIGS. 12-14
# Protocol: Autophosphorylation of the VEGFR-I induced by its ligands and resulting activation of a classical MAPK, extracellular signal-regulated protein kinases 1Z2 (ERK1Z2) and the PBK/Atk downstrean signaling pathways mediate cellular biological responses such as proliferation, motility, survival, and differentiation. The ability of an anti-VEGFR-1 antibody to inhibit phosphorylation of VEGFR-I and activation of ERK1 Z2 and the Akt kinases downstream signaling were determined by using the PAE-VEGFR-I transfectant and BT474 breast carcinoma cells.
# PAE-VEGFR-I and BT474 cells were seeded at a density of 5×10^5Zwell in […] plates and cultured in serum-free medium for 18-48 hours. After replacing the culture medium, the cells were treated at 37° C. with anti-VEGFR-I antibody clones 6F9, 15F1 1, and 18F1 or isotype control for 1 hour and then incubated with 50 ng/ml of VEGF or 100 ng/ml of PlGF for 10 minutes. […] Western blot of phosphorylated VEGFR-I was detected using […] antibody (PY-20, Santa Cruz Biotechnology, Santa Cruz, Calif.). Proteins were detected using and […] chemiluminescence system (ECL)(Amersham Pharmacia Biotech, Piscataway, N.J.), and quantified by densitometry using NIH Image (National Institute of Mental Health, Bethesda, Md.). […]
substance,measurement,setting,value
"18F1: human anti-VEGFR-1 monoclonal antibody clone; VL SEQ ID NO: 16, VH SEQ ID NO: 20 [Clone 18F1]",tumor growth of the MDA-MB-435 xenograft,"[1]; 0.5 or 1 mg per dose three times each week, ANOVA p<0.05, FIG. 20C",statistically significant suppression
same,growth of MDA-MB-435 xenograft tumors,"[1]; Example 9, intraperitoneal, p<0.05, FIG. 25B",significantly (p<0.05) suppressed
same,PlGF and VEGF induced activation of ERK1/2 downstream signaling,[2],dramatically inhibited; also recorded: inhibition
